Results taken from patent US11841369B2, “Method for improving quality of therapeutic cell through real-time glutathione measurement” (CELL2IN, INC., priority 2017, dated 2023).

Columns and labels:
[1] = system: hUC-MSCs; test: Oxidative stress resistance capacity (ORC) analysis with RSL3; format: cell-based, human; settings: hUC-MSCs subcultured three times with AA2G 250 μg/mL, vs naive cell group (NC)
Procedure: In addition, GH is calculated as the coefficient of variation or robust coefficient of variation of cellular FR. GRC refers to a value obtained by real-time monitoring of FR after living cells are treated with an oxidizing agent, as calculated by dividing a value obtained by subtracting AUC of a group treated with 0.1-100 mM N-ethylmaleimide (NEM) from FR AUC of an oxidizing agent (diamide, H2O2, etc.)-treated group by a value obtained by subtracting the AUC of NEM-treated group from AUC of the untreated control, and multiplying the resulting value by 100. The FR of the NEM-treated group is a value for increasing the sensitivity of a GRC value by treating it as the blank value of the FR of the cells of interest. […] To remove the MitoFreSH-Tracer from the medium before measurement, the medium was exchanged with fresh 10 mM HEPES-containing HBSS, and a fluorescence image was obtained using a confocal imaging system, Operetta. By comparing GSH levels quantified from control cells not treated with RSL3 or control cells before treated with RSL3, the distribution of GSH expression-changed cells was calculated. Based on the point where the distribution histogram is divided into two peaks, the cells were divided into GSH^High cells (right peak) and GSH^Low cells (left peak), and then a ratio of corresponding cells was expressed as a percentage (%). […]

[2] = system: hUC-MSCs; test: SDF1α- and PDGF-AA-induced migration capacity of hUC-MSCs; format: cell-based, human; settings: 125 or 250 μg/mL AA2G, three days
Procedure: The inventors observed an effect of the material on stem cells by treating each stem cells with a material for enhancing a glutathione evaluation parameter. When hUC-MSCs were subcultured in a L-AA2G-containing medium, CFU-F, migration capacity, and an anti-inflammatory effect were observed. A CFU-F assay (n=3) was performed by treating hUC-MSCs with 125 or 250 μg/mL of AA2G for three days. As shown in FIGS. 16A and 16B, it was confirmed that, when AA2G was treated, CFU-F increased. In addition, as hUC-MSCs were treated with 125 or 250 μg/mL of AA2G for three days, PDGF-AA-induced migration capacity (n=3) was analyzed. As shown in FIGS. 17A and 17B, it was confirmed that the migration capacity was increased by AA2G treatment. In addition, the reduction in T cell proliferation, a reduction in T cell differentiation, and the promotion of Treg cell differentiation were observed by treating hUC-MSCs with 125 or 250 μg/mL of AA2G for three days. […] Meanwhile, hUC-MSCs were cultured with a glutathione precursor such as γ-glutamyl cysteine (GGC, 0.1, 0.25, and 0.5 mM). A CFU-F assay (n=3) was performed by treating hUC-MSCs with each concentration of GGC for 2 hours. […] In addition, SDF1α and PDGF-AA-induced migration capacities (n=3) were analyzed for hUC-MSCs without treatment with GGC, and SDF1α- and PDGF-AA-induced migration abilities (n=3) were analyzed by treating hUC-MSCs with the increasing concentrations of GGC. STI571 was used as a PDGFR kinase inhibitor. As shown in FIGS. 20A to 20C, it was confirmed that, according to an increase in GGC treatment concentration, SDF1α- and PDGF-AA-induced migration capacities were enhanced.

[3] = system: T cells; test: Anti-inflammatory effect of treated hUC-MSCs: T cell proliferation, T cell differentiation, Treg cell differentiation; format: cell-based; settings: hUC-MSCs treated with 125 or 250 μg/mL AA2G, three days
Procedure: The inventors observed an effect of the material on stem cells by treating each stem cells with a material for enhancing a glutathione evaluation parameter. When hUC-MSCs were subcultured in a L-AA2G-containing medium, CFU-F, migration capacity, and an anti-inflammatory effect were observed. A CFU-F assay (n=3) was performed by treating hUC-MSCs with 125 or 250 μg/mL of AA2G for three days. As shown in FIGS. 16A and 16B, it was confirmed that, when AA2G was treated, CFU-F increased. In addition, as hUC-MSCs were treated with 125 or 250 μg/mL of AA2G for three days, PDGF-AA-induced migration capacity (n=3) was analyzed. As shown in FIGS. 17A and 17B, it was confirmed that the migration capacity was increased by AA2G treatment. In addition, the reduction in T cell proliferation, a reduction in T cell differentiation, and the promotion of Treg cell differentiation were observed by treating hUC-MSCs with 125 or 250 μg/mL of AA2G for three days.
In addition, hUC-MSCs were cultured with ferrostatin-1 (0.2, 1, 2 and 4 μM) and liproxstatin-1 (0.1, 0.5, 1 and 2 μM), which control a glutathione level in cells by inhibiting lipid oxidation. […] Meanwhile, the hUC-MSCs were treated with 1 μM ferrostatin-1 for 24 hours, 0.2 mM GGC for 2 hours, and 2 mM GSH-EE for 2 hours. As a result, the reduction in T cell proliferation ability and the reduction in T cell differentiation capacity were observed, and promotion of Treg cell differentiation was observed.

O=C1O[C@H]([C@@H](O)CO)C(O)=C1O[C@H]1O[C@H](CO)[C@@H](O)[C@H](O)[C@H]1O [AA2G, ascorbic acid 2-glucoside]
FreSH-Tracer-based ORC (GSH^High cells) [1]: higher
PDGF-AA-induced migration capacity [2]: increased
T cell differentiation [3]: reduction
T cell proliferation [3]: reduction
Treg cell differentiation [3]: promotion
anti-inflammatory effect of stem cells [3]: exhibited
